Molecules are shown by their SMILES.

Assay type in all cases: cell-based
One test has as its system NClH2110. Nature of the test: EZH2 inhibition sensitivity, NClH2110. The following applies: no mutations or info not available in SMARCA2, SMARCA4, KRAS, read-out: Compound D IC50. The text has this:
(§1) Sensitivity to EZH2 inhibition was examined in various cancer cell lines with similar mutations or loss of SWI/SNF components. Table 7 summarizes the EZH2 activity in additional SWI/SNF altered cancers, including lung adenocarcinoma.

The subject of a further test is NCl-H23. Nature of the test: EZH2 inhibition sensitivity, NCl-H23. The following applies: SMARCA2 mRNA/protein loss, SMARCA4 Mutations, KRAS Mutations, read-out: Compound D IC50.
Text: as §1

The next test relates to SCCOHT cell lines. As to the kind of experiment: 14-day proliferation assays, SCCOHT cell lines. The following applies: 336 h, three SCCOHT cell lines. As for the experimental part: (§2) A panel of ovarian cancer cell lines of different histologies was subjected to proliferation assays in 2-D tissue culture for 14 days in the presence of increasing concentrations of an EZH2 inhibitor. Selected cell lines were also tested in 3-D cultures. […] In contrast, mutations in ARID1A, another SWI/SNF component, were not observed to broadly confer sensitivity to EZH2 inhibition in ovarian cancer cell lines in either 2-D or 3-D in vitro assays.

For a further test, the system named is SCCOHT cell line Bin-67. As to the kind of experiment: 14 day proliferation study in Bin-67. The following applies: 336 h; Bin-67, 14 day proliferation, 0.01-10 μM. As for the experimental part: FIG. 13C is a graph displaying the results of a 14 day proliferation study with Compound D in the SMARCA4- and SMARCA2-negative small cell carcinoma of the ovary, hypercalcemic type (SCCOHT) cell line Bin-67. Growth curves are shown for 8 different treatment conditions ranging from 0.01-10 μM.
as §2

For another test, the system named is NClH838. Nature of the test: EZH2 inhibition sensitivity, NClH838. The following applies: SMARCA4 Mutations, read-out: Compound D IC50.
Text: as §1

A further test deals with NCl-H1299. Nature of the test: EZH2 inhibition sensitivity, NCl-H1299. The following applies: SMARCA4 Mutations, read-out: Compound D IC50.
Text: as §1

The next test concerns A549. As to the kind of experiment: EZH2 inhibition sensitivity, A549 (Proquinase 3D). The following applies: Homo sapiens, Proquinase 3D IC50, SMARCA4 Mutations, KRAS Mutations, read-out: Compound D IC50.
Text: as §1

Another test relates to NClH2122. As to the kind of experiment: EZH2 inhibition sensitivity, NClH2122. The following applies: KRAS Mutations, read-out: Compound D IC50.
Text: as §1

A further test relates to NClH1373. As to the kind of experiment: EZH2 inhibition sensitivity, NClH1373. The following applies: KRAS Mutations, read-out: Compound D IC50.
Text: as §1

The test system of test [1] is SMARCA4-negative ovarian cell lines. As to the kind of experiment: Long term 2D proliferation assay, SMARCA4-negative ovarian cell lines. The following applies: day 14, SMARCA4-negative cell lines. On the procedure: (§3) FIG. 13B is a pair of graphs depicting the results of a long term 2D proliferation assay for Compound D in SMARCA4 and ARID1A ovarian cell lines. The day 14 IC50 values are shown.
as §2

The next test concerns NClH1563. Nature of the test: EZH2 inhibition sensitivity, NClH1563. Conditions: no mutations or info not available in SMARCA2, SMARCA4, KRAS, read-out: Compound D IC50.
Text: as §1

For another test, the system named is NCl-H522. As to the kind of experiment: EZH2 inhibition sensitivity, NCl-H522. The following applies: SMARCA2 mRNA/protein loss, SMARCA4 Mutations, KRAS No mutations or info not available, read-out: Compound D IC50.
Text: as §1

The test system of the next test is A427. Nature of the test: EZH2 inhibition sensitivity, A427. The following applies: Homo sapiens, A-427, SMARCA2 mRNA/protein loss, SMARCA4 Mutations, KRAS Mutations, read-out: Compound D IC50.
Text: as §1

Another test has as its system NCl-H441. Nature of the test: EZH2 inhibition sensitivity, NCl-H441 (Proquinase 3D). The following applies: Proquinase 3D IC50, KRAS Mutations, read-out: Compound D IC50.
Text: as §1

A further test deals with NClH1993. As to the kind of experiment: EZH2 inhibition sensitivity, NClH1993. The following applies: no mutations or info not available in SMARCA2, SMARCA4, KRAS, read-out: Compound D IC50.
Text: as §1

Another test concerns HCC827. Nature of the test: EZH2 inhibition sensitivity, HCC827 (Proquinase 3D). Conditions: Homo sapiens, Proquinase 3D IC50, no mutations or info not available in SMARCA2, SMARCA4, KRAS, read-out: Compound D IC50.
Text: as §1

Another test has as its system Calu-6. As to the kind of experiment: EZH2 inhibition sensitivity, Calu-6. Conditions: Homo sapiens, KRAS Mutations, read-out: Compound D IC50.
Text: as §1

A further test deals with NClH1734. Nature of the test: EZH2 inhibition sensitivity, NClH1734. Conditions: KRAS Mutations, read-out: Compound D IC50.
Text: as §1

For the next test, the system named is NClH1793. Nature of the test: EZH2 inhibition sensitivity, NClH1793. Conditions: SMARCA4 Mutations, read-out: Compound D IC50.
Text: as §1

The subject of another test is H460. As to the kind of experiment: EZH2 inhibition sensitivity, H460 (Proquinase 3D). Conditions: Homo sapiens, NCI-H460, Proquinase 3D IC50, KRAS Mutations, read-out: Compound D IC50.
Text: as §1

In a further test the test system is Calu-3. As to the kind of experiment: EZH2 inhibition sensitivity, Calu-3. The following applies: Homo sapiens, no mutations or info not available in SMARCA2, SMARCA4, KRAS, read-out: Compound D IC50.
Text: as §1

Test [2] deals with ARID1A-mutated ovarian cell lines. Nature of the test: 3D growth assay (Scivax Nanoculture), ARID1A-mutated ovarian cell lines. Conditions: after 14 days. On the procedure:
3D assays were performed using the Scivax Nanoculture technology whereby the micro-patterned scaffold mimics the ECM.
as §2

A further test relates to H3K27me3 in Bin-67 cells. Nature of the test: Western Blot of H3K27me3 levels in Bin-67 cells. Conditions: day 14, all concentrations. On the technique in general: Immunoblotting shows a protein as a band on a membrane.
The test system of test [3] is ARID1A mutated ovarian cell lines. As to the kind of experiment: Long term 2D proliferation assay, ARID1A mutated ovarian cell lines. The following applies: day 14, ARID1A mutated ovarian cell lines. On the procedure:
as §3, §2

On to `CCN(c1cc(-c2ccc(CN3CCOCC3)cc2)cc(C(=O)NCc2c(C)cc(C)[nH]c2=O)c1C)[C@H]1CC[C@H](N(C)C)CC1` [Compound D], for which the IC50 with NClH2110 was 10 µM; in the test on NCl-H23, 10 µM; with SCCOHT cell lines, 0.005 to 0.017 µM; in the test with SCCOHT cell line Bin-67 it was 0.01 µM; in the test on NClH838, 10 µM; in the test on NCl-H1299 it was 10 µM. Further, the concentration for half-maximal inhibition (IC50) in the test with A549 stood at 10 µM; in the test with NClH2122, 10 µM; in the test on NClH1373 it was 10 µM; with NClH1563, 10 µM; in the test on NCl-H522 it was 1.14 µM; with A427, 2.3 µM. The IC50 with NCl-H441 was found to be 10 µM; in the test with NClH1993, 10 µM; in the test on HCC827 it was 10 µM; with Calu-6 it was 0.001 µM; with NClH1734, 10 µM; with NClH1793, 10 µM. Besides, the IC50 with H460 and with Calu-3 was 10 µM in each case. The anti-proliferative effects entry in test [1] is “anti-proliferative effects”; in test [3], “do not”. Besides, the 3D growth effects result in [2] is “No effects were observed”. Besides, in the test with H3K27me3 in Bin-67 cells, the H3K27me3 levels entry is given as “completely reduced”.

As a reminder, the IC50 is the concentration needed to halve the response being measured.

Source of the values: patent publication US20200138825A1, “METHOD OF TREATING MALIGNANT RHABDOID TUMOR OF THE OVARY (MRTO)/SMALL CELL CANCER OF THE OVARY OF THE HYPERCALCEMIC TYPE(SCCOHT) WITH AN EZH2 INHIBITOR” (Epizyme, Inc., priority 2015, published 2020).
